Data: patent US11905504B2, “Body cube and process for culturing tissue” (Government of the United States of America, as represented …, priority 2020, dated 2024)
“Also recorded” adds a separate entry of the source.

Legend:
HepG2/C3A liver cells [1] = test: Cell viability stain of liver cells after 72 h co-culture in the body cube; type: cell-based, human; conditions: 72 h four-tissue co-culture in body cube, 80 μL recirculating medium; compared to control without drug
HepG2/C3A liver cells [2] = type: cell-based
Procedure: After 24 h, the cell-loaded 3D scaffolds were aseptically transferred into the tissue chambers of the appropriate tissues chip. The chips were then placed on top of each other, so that the back of one tissue chamber closed the opening of the tissue chip below it. The tissue chip stack was then inserted into the holder. The two reservoirs of the cube were filled with 32.5 μL of EMEM (containing a volume fraction of 10% FBS) each, and the device was placed onto a rocker platform that tilted back and forth at an angle of 45°. The platform changed its tilt from 45° to −45° every 60 s continuously for 72 h. Culture medium was collected and replaced with fresh medium after 1 h, 16 h, 24 h, 40 h, 48 h, and 64 h. The total amount of blood surrogate (i.e. the amount of cell culture medium that we consider blood surrogate) inside the system consisted of 2×32.5 μL (medium in the reservoirs), plus 15 μL (medium inside the microfluidic channels that deliver medium to the tissue culture chambers).
To estimate cell death during co-culture, we measured AST concentrations in the cell culture medium recovered from the devices after 1 h, 16 h, 40 h and 64 h of co-culture. The AST activity was measured with an assay kit. Briefly, standard samples and medium samples were added to the 96 well plate. We then added 100 μL of working solution to each well and mixed both solutions by gently tapping the plate. The plate was then incubated inside a plate reader in the dark, at 37° C. […] We then selected the initial absorbance value inside the linear range and calculated the AST concentrations using the protocol given in the kit. The results are expressed as μg per million cells produced in relation to a 1 h baseline measurement.
Similar to the baseline experiments described above, we recovered cell cultures after 72 h of co-culture from the device.

HepG2/C3A liver cells [3] = test: Urea production in collected cell culture medium of the body cube; type: cell-based, human
HepG2/C3A liver cells [4] = test: Albumin synthesis by ELISA in cell culture medium of the body cube; type: cell-based, human; conditions: drugs added to the cube; compared to control without drug

## Cc1c(C)c2c(c(C)c1O)CCC(C)(COc1ccc(CC3SC(=O)NC3=O)cc1)O2 (stereo not shown) [troglitazone]
HepG2/C3A liver cells [1]
  cell viability in the liver chamber (viability stain, fluorescence images): significant liver damage; also recorded: expected cell death; also recorded: significantly lowered cell viability
HepG2/C3A liver cells [2]; after 40 h of exposure
  cytosolic enzymes released vs cultures not exposed to drugs: significantly larger amounts
HepG2/C3A liver cells [2]; after 48 h
  cytosolic enzyme concentration in the medium vs control cultures: similar
HepG2/C3A liver cells [2]; body cube co-culture, compared to control without drug
  AST in the cell culture medium: significantly higher; also recorded: temporary increase of AST
HepG2/C3A liver cells [3]; body cube co-culture challenged with drug
  metabolic activity of the tissues: decrease in metabolic activity
HepG2/C3A liver cells [3]; drugs added to the cube, compared to control without drug
  urea production: decreased
HepG2/C3A liver cells [4]
  albumin production: not albumin production was decreased
